Measurements published in article PMC5025780, “Copper(II) ions affect the gating dynamics of the 20S proteasome: a molecular and in cell study” (Scientific Reports, 2016).

Tested on: proteasome ChT-L activity in HeLa cells
Experiment: Proteasome-Glo Chymotrypsin-Like Cell-Based Assay in intact HeLa cells
Design: species or system human
Conditions: for Copper-induced proteasome inhibition in cells pretreated with NAC: 100 μM NAC pretreatment 24 h
Method: HeLa cells (human cervix carcinoma), were cultured in Dulbecco’s MEM medium (Life Technologies) supplemented with 10% of fetal calf serum (FCS, Life Technologies), glutamax (Invitrogen), 100 U/mL penicillin, 100 µg/mL streptomycin. Cells were routinely grown as stocks in 75 cm^2 flasks in a humidified atmosphere (95% air, 5% CO2) at 37 °C.
The ChT-L proteolytic activity of the proteasome in intact HeLa cells were determined using the Proteasome-Glo™ Chymotrypsin-Like Cell-Based Assay (Promega) according to manufacturer's instructions. Briefly, 800 cells/well were grown in 384 sterile multiwells (optical plate and white walls) in 50 μl of DMEM + FBS10% + PenStrep 1%. After 4 h of cell seeding, Cu(II) was added in cell medium in a concentration range 10–80 μM for 24 h. Then the medium was removed and replaced with FCS free medium. To determine whether or not the residual proteolytic measured was dependent on to proteasome rather than other proteases, we performed a control experiment with epoxomicin, a specific proteasome inhibitor. Epoxomicin (5 μM) was added to the cells 60 min before the proteasome activity assay. The substrate for the β5 ChT-L activity (Suc-LLVY-aminoluciferin) was dissolved in Proteasome-Glo™ Cell-Based Reagent and added to intact cells. After 2 min of shaking for permeabilization and further 10 min of incubation at 25 °C, luminescence was measured with a Varioskan Flash (Thermo) micro plate reader. Proteasome activity in intact cells was also measured by using the internally quenched fluorogenic substrate H2N-K-K(Dabcyl)-K-K-L-L-V-Y-G-E(Edans)-G-R-K-K-R-R-Q-R-R-R- (TED) as described elsewhere. […] The peptide purity was determined by MALDI-TOF experiments carried out with a Bruker Reflex III time-of-flight (TOF) mass spectrometer operating in the reflection mode, and the matrix used was α-cyano 4-hydroxycinnamic. […] TED internalization and cleavage in live HeLa cells was assayed by fluorescence microscopy (see Figure S8 of Supplementary Information).

## [Cl][Cu][Cl] [Cu(II), CuCl2]
Cu(II) 80 μM
  Copper-induced proteasome inhibition in cells pretreated with NAC: did not overcome proteasome inhibition
Cu(II) 20 to 80 μM in medium, 24 h
  ChT-L activity in HeLa cells (normalized to untreated controls): 60%
Cu(II) 20–40 μM
  Copper-induced proteasome inhibition in cells pretreated with NAC: completely abolished
